Test results published in the supplement of paper PMC5844555.

Columns and labels:
Assay in all cases: 3' UTR reporter interaction score (median-centred robust z-score of log2 firefly/Renilla activity); higher = less repression of the 3' UTR reporter
Conditions in all cases: HEK293T; 48 h
MYC = system: MYC
Summary of the method: (§1)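 Using DharmaFECT Duo, HEK293T cells (10,000/well, 96-well plates) were co-transfected with 2.5 pmol miRNA mimic, 100 ng firefly luc2P reporter containing the gene's 3' UTR and 20 ng Renilla pRL-TK control, and dual-luciferase activity was read 48 h later. The interaction score is the log firefly/Renilla ratio as a per-plate robust z-score (median, median absolute deviation), median-centred per miRNA, averaged over at least two independent screens; lower, more negative values indicate interaction.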

ZEB2 = system: ZEB2
Summary of the method: as §1

HRAS = system: HRAS
Summary of the method: as §1

MYT1L = system: MYT1L
Summary of the method: as §1

NOTCH1 = system: NOTCH1
Summary of the method: as §1

FBXW7 = system: FBXW7
Summary of the method: as §1

MYB = system: MYB
Summary of the method: as §1

PHF6 = system: PHF6
Summary of the method: as §1

MYCN = system: MYCN
Summary of the method: as §1

TP53 = system: TP53
Summary of the method: as §1

BRCA2 = system: BRCA2
Summary of the method: as §1

RB1 = system: RB1
Summary of the method: as §1

EZH2 = system: EZH2
Summary of the method: as §1

PHOX2B = system: PHOX2B
Summary of the method: as §1

Sequence	3' UTR reporter interaction score (MYC)	3' UTR reporter interaction score (ZEB2)	3' UTR reporter interaction score (HRAS)	3' UTR reporter interaction score (MYT1L)	3' UTR reporter interaction score (NOTCH1)	3' UTR reporter interaction score (FBXW7)	3' UTR reporter interaction score (MYB)	3' UTR reporter interaction score (PHF6)	3' UTR reporter interaction score (MYCN)	3' UTR reporter interaction score (TP53)	3' UTR reporter interaction score (BRCA2)	3' UTR reporter interaction score (RB1)	3' UTR reporter interaction score (EZH2)	3' UTR reporter interaction score (PHOX2B)
AGGAGGCAGCGCUCUCAGGAC	-1.13	2.03	-0.534	2.05	-2.44	-0.582	0.571	1.36	0.868	-0.457	-0.741	0.463	-1.61	0.109
AGGCACGGUGUCAGCAGGC	0.509	-0.659	-0.153	0.478	0.0125	0.393	0.171	0.283	-0.274	-0.839	-0.203	0.0845	0.629	0.32
AGGCAGUGUAGUUAGCUGAUUGC	-1.05	-0.539	1.1	0.754	-3.48	-0.242	-4.27	-2.27	-5.02	0.285	0.647	0.138	1.87	-1.02
AGGCAGUGUAUUGUUAGCUGGC	-2.42	0.15	0.697	0.156	-4.34	0.842	-4.72	-4.67	-5.92	1.19	1.59	-1.56	-0.179	0.369
AGGCGGGGCGCCGCGGGACCGC	-0.234	0.258	-0.439	-0.425	0.236	-0.475	-0.412	1.42	-0.386	-0.353	-0.123	0.467	-1.53	-0.317
AGGCUGCGGAAUUCAGGAC	-0.912	2.21	-1.18	1.31	0.93	0.871	0.132	1.89	0.119	-1.78	-1.7	0.76	-1.27	-0.147
AGGGAUCGCGGGCGGGUGGCGGCCU	-0.321	-0.0578	-0.484	-0.194	0.433	-0.971	0.376	2.46	-0.927	0.628	0.916	-0.0484	-0.298	-1.25
AGGGCCCCCCCUCAAUCCUGU	-0.761	1.65	-0.753	0.617	-0.584	0.757	0.144	0.378	-0.0892	-0.172	0.425	1.06	0.205	0.177
AGGGGGAAAGUUCUAUAGUCCU	-1.56	2.84	0.225	-0.154	-1.57	0.691	1.55	1.82	0.426	-0.601	-1.55	0.755	-1.49	1.33
AGGGGUGGUGUUGGGACAGCUCCGU	-0.499	0.212	-1.12	-0.319	-4.27	0.925	-0.179	-0.137	0.408	0.0145	-0.768	0.429	0.203	-0.841
AGGGUAAGCUGAACCUCUGAU	-0.643	-0.308	-0.74	0.432	-0.542	2.4	0.366	-0.384	1.35	0.182	0.0158	-1.03	-0.149	1.64
AGGGUGUUUCUCUCAUCUCU	0.84	-0.283	0.396	-2.32	-1.24	-0.794	1.44	1.32	1.22	0.571	-0.403	-0.774	-0.619	2.27
AGGUUACCCGAGCAACUUUGCA	-0.29	0.562	-1.62	2.75	0.652	-1.16	1.71	0.436	0.0957	-1.44	-1.98	2.97	-1.68	2.07
AGGUUGACAUACGUUUCCC	-0.726	1.11	-1.43	0.798	1.09	-0.16	0.862	0.251	-0.377	-0.178	-0.754	0.54	-0.54	0.494
AGUAUGUUCUUCCAGGACAGAAC	0.576	0.181	0.113	-0.575	-0.607	0.574	0.712	-0.447	-0.169	0.258	-2.15	0.243	0.482	-1.01
AGUAUUCUGUACCAGGGAAGGU	0.255	-1.77	-0.0345	-1.07	0.758	1.75	-0.25	-1.2	0.786	0.107	0.623	-0.386	-2.56	0.0656
AGUGACAUCACAUAUACGGCAGC	-0.366	1.55	-0.649	0.969	0.273	-1.31	0.233	0.28	0.321	-0.15	-1.13	0.945	-0.788	0.805
AGUGGGGAACCCUUCCAUGAGGA	-0.465	1.02	0.144	-1.79	-0.0192	0.423	0.186	0.14	0.0621	-3.21	0.0202	0.472	-0.974	-0.69
AGUGGUUUUACCCUAUGGUAG	0.603	-0.644	-0.669	1.52	-0.395	-0.0104	2.26	1.32	0.551	-3.34	-2.62	1.79	0.908	1.56
